Experiments:
[1] = molecular target: Sodium/potassium-transporting ATPase; test: Displacement of [3H]ouabain from dog kidney Na+/K+ ATPase; type: protein-complex assay, Canis lupus familiaris
[2] = Acid dissociation constant was determined; type: ADME

| Structure (SMILES) | -Log IC50 [1] | pKa [2] |
| --- | --- | --- |
| C[C@]12CC[C@H](O)C[C@H]1CC[C@@H]1[C@@H]2CC[C@]2(C)[C@@H](/C=N/N=C(N)N)CC[C@]12O.Cl | 7 | 9.35 |
| CN1CCN=C1N/N=C/[C@H]1CC[C@]2(O)[C@@H]3CC[C@@H]4C[C@@H](O)CC[C@]4(C)[C@H]3CC[C@]12C | 6 | 8.05 |
| C/C(=N\N=C(N)N)[C@H]1CC[C@]2(O)[C@@H]3CC[C@@H]4C[C@@H](O)CC[C@]4(C)[C@H]3CC[C@]12C | 6.7 | 9.49 |
| C[C@]12CC[C@H](O)C[C@H]1CC[C@@H]1[C@@H]2CC[C@]2(C)[C@@H](/C=N/NC3=NC(=O)CN3)CC[C@]12O | 4.7 | 3.58 |
| C[C@]12CC[C@H](O)C[C@H]1CC[C@@H]1[C@@H]2CC[C@]2(C)[C@@H](/C=N/NC(N)=O)CC[C@]12O | 5.1 | 1.78 |
| C[C@]12CC[C@H](O)C[C@H]1CC[C@@H]1[C@@H]2CC[C@]2(C)[C@@H](/C=N/N=C(\N)S)CC[C@]12O | 4.7 | 0.86 |
| C[C@]12CC[C@H](O)C[C@H]1CC[C@@H]1[C@@H]2CC[C@]2(C)[C@@H](/C=N/NC3=NCCN3)CC[C@]12O | 6.7 | 8.42 |
| C[C@]12CC[C@H](O)C[C@H]1CC[C@@H]1[C@@H]2CC[C@]2(C)[C@@H](/C=N/NC3=NCCCN3)CC[C@]12O | 6.6 | 10.4 |
| C[C@]12CC[C@H](O)C[C@H]1CC[C@@H]1[C@@H]2CC[C@]2(C)[C@@H](/C=N/Nc3ccccn3)CC[C@]12O | 5.7 | 6.34 |
| C[C@]12CC[C@H](O)C[C@H]1CC[C@@H]1[C@@H]2CC[C@]2(C)[C@@H](/C=N/Nc3ncccn3)CC[C@]12O | 4.6 | 3.44 |
| CSC(=N)N/N=C/[C@H]1CC[C@]2(O)[C@@H]3CC[C@@H]4C[C@@H](O)CC[C@]4(C)[C@H]3CC[C@]12C | 5.7 | 5.76 |
| C[C@]12CC[C@H](O)C[C@H]1CC[C@@H]1[C@@H]2CC[C@]2(C)[C@@H](/C=N/N=C(\N)Nc3ccccc3)CC[C@]12O | 5.2 | 8.62 |
| C/N=C(\C[N+](=O)[O-])N/N=C/[C@H]1CC[C@]2(O)[C@@H]3CC[C@@H]4C[C@@H](O)CC[C@]4(C)[C@H]3CC[C@]12C | 4.5 | 2.37 |

From ChEMBL document CHEMBL1129615, “Synthesis and quantitative structure-activity relationship of 17 beta-(hydrazonomethyl)-5 beta-androstane-3 beta,14 beta-diol derivatives that bind to Na+,K(+)-ATPase receptor” (J Med Chem, 1996)
